# Experimental data: article PMC10740831, “Synthesis, Hydrolytic Stability and In Vivo Biological Study of Bioconjugates of the Tetrapeptides FELL Containing Pyrrole Moiety” (Biomedicines, 2023)
# Entries after “also recorded” stand apart in the source; their conditions may differ. Peptide text beside a SMILES is read from it. * marks the point of attachment. X1 = CCOC(=O)c1c(C)[nH]c(C(=O)*)c1C; X2 = CCOC(=O)c1[nH]c(C)c(C(=O)*)c1C
# Columns and labels:
# [1] = test system: male Wistar rats; assay: Nociceptive Paw Pressure test (Randall–Selitto test), analgesic activity; type: in vivo, rat; conditions: 0.25 mg/kg i.p.; for course of analgesic activity over time (in words) / analgesic activity (paw pressure thresholds): Figure 6; for analgesic activity (paw pressure thresholds): male Wistar rats, 8–10 per group, measured every 10 min from 10th to 50th min; for highest analgesic activity reached, as percent of that of the parent acid: BB20A vs acid A, BB19B vs acid B
# Experimental: The male Wistar rats (180–200 g) were used for all experiments. All animals were kept at around 22 °C and under normal conditions. The experimental procedures are realized in the interval 10:00 a.m. to 1:00 p.m. and are approved by the Research Ethics Commission of the Medical University-Sofia.
# (§1) Several groups of experimental animals were used. Each group contains 8–10 rats: • The control group receives 0.2 mL of saline intraperitoneally injected (i.p.); • Six experimental groups receiving one of the 6 tested substances (0.25 mg/kg, i.p.)—pyrrole acid A, pyrrole acid B, BB19A, BB19B, BB20A, and BB20B; • Four experimental groups receiving Naloxone (1 mg/kg, i.p.) before the administration of the newly synthesized bioconjugates BB19A, BB19B, BB20A, and BB20B; • Four experimental groups receiving AM251 (1.25 mg/kg, i.p.) before the administration of the newly synthesized bioconjugates BB19A, BB19B, BB20A, and BB20B.
# (§2) An analgesiometer was used to measure the specific changes in the mechanical nociceptive thresholds (PPT) of experimental animals). A pressure was applied to the hind-paw and the value (g) required to elicit a nociceptive response (such as squeak or struggle) was taken as the mechanical nociceptive threshold. A cut-off value of 500 g was used to prevent damage of the paw. The targeted compounds were administrated and further nociception was evaluated each 10 min from the 10th min until the 50th min.
# (§3) The results were statistically assessed by one-way analysis of variance followed by Newman-Keuls post hoc comparison test. One-Way ANOVA has been used to analyze the data. Values are represented in arbitrary units (AU) according to the scale, as mean ± S.E.M. Values of p < 0.05 were considered to indicate statistical significance.
# [2] = test system: opioid receptor; assay: Paw pressure test after Naloxone pretreatment; type: in vivo, rat; conditions: Naloxone 1 mg/kg i.p. before bioconjugate 0.25 mg/kg i.p.; compared with no pretreatment; Figure 7
# Experimental: as §1
# (§4) Pretreatments with the non-selective opioid receptor antagonist Naloxone or the cannabinoid receptor antagonist AM251 were performed in order to estimate the types of receptors engaged in the effects observed—respectively, the opioid or the cannabinoid receptor [35].
# as §2, §3
# [3] = test system: cannabinoid receptor; assay: Paw pressure test after AM251 pretreatment; type: in vivo, rat; conditions: AM251 1.25 mg/kg i.p. before bioconjugate 0.25 mg/kg i.p.; for time points with paradoxically higher analgesia after AM251 pretreatment than without pretreatment: Figure 7
# Experimental: as §1, §4, §2, §3
# [4] = previously evaluated in vivo; cited from earlier work
# From the text: Parent compound FELL (Phe-Glu-Leu-Leu-OH) and four analogs of the tetrapeptide were previously evaluated in vivo for their analgesic activity.
# [5] = test system: white blood cell accumulation in the bronchoalveolar fluid; conditions: cited from earlier work
# From the text: In this context, tetrapeptide sequence H-FELL-OH is known from the literature as an anti-inflammatory agent.
compound,measurement,setting,value
"CCOC(=O)c1c(C)[nH]c(C(=O)N[C@@H](Cc2ccccc2)C(=O)N[C@@H](CCC(=O)O)C(=O)N[C@@H](CC(C)C)C(=O)N[C@@H](CC(C)C)C(N)=O)c1C [BB19A, A-Phe-Glu-Leu-Leu-NH2] (X1-FELL-NH2)",course of analgesic activity over time (in words),[1]; 10th to 50th min,biphasic activity
same,analgesic activity on the 50th min compared with parent pyrrole acid,[1]; 50th min,exceeded the parent alpha acid
same,analgesic activity (paw pressure thresholds),[1],exhibited analgesic activity
same,"analgesic activity after opioid receptor blockade (Naloxone pretreatment), in words",[2],significant analgesia that even initially exceeded that of the substances without the pretreatment; also recorded: naloxone-independent in the first phase and naloxone-dependent in the second
same,time points with paradoxically higher analgesia after AM251 pretreatment than without pretreatment,[3],10th min
"CCOC(=O)c1c(C)[nH]c(C(=O)N[C@@H](Cc2ccccc2)C(=O)N[C@@H](CCC(=O)O)C(=O)N[C@@H](CC(C)C)C(=O)N[C@@H](CC(C)C)C(=O)O)c1C [BB20A, A-Phe-Glu-Leu-Leu-OH] (X1-FELL-OH)",course of analgesic activity over time (in words),[1]; 10th to 50th min,decreased to control values
same,analgesic activity (paw pressure thresholds),[1],exhibited analgesic activity
same,"highest analgesic activity reached, as percent of that of the parent acid",[1],more than 87%
same,"analgesic activity after opioid receptor blockade (Naloxone pretreatment), in words",[2],Opioid receptors appear to be involved
same,"involvement of cannabinoid receptors in the analgesic effect (AM251 pretreatment), in words",[3],they “turn on” at a later stage—after the 20th minute
same,time points with paradoxically higher analgesia after AM251 pretreatment than without pretreatment,[3],10th min
"CCOC(=O)c1[nH]c(C)c(C(=O)N[C@@H](Cc2ccccc2)C(=O)N[C@@H](CCC(=O)O)C(=O)N[C@@H](CC(C)C)C(=O)N[C@@H](CC(C)C)C(=O)O)c1C [BB20B, B-Phe-Glu-Leu-Leu-OH] (X2-FELL-OH)",analgesic activity / PPTs on the 10th min compared with parent pyrrole acid,[1],equivalent to the parent beta acid’s ones
same,course of analgesic activity over time (in words),[1]; 10th to 50th min,slowly decreased to control levels
same,analgesic activity (paw pressure thresholds),[1],exhibited analgesic activity
same,"analgesic activity after opioid receptor blockade (Naloxone pretreatment), in words",[2],Opioid receptors appear to be involved
same,"involvement of cannabinoid receptors in the analgesic effect (AM251 pretreatment), in words",[3],Cannabinoid receptors are also involved
"CCOC(=O)c1c(C)[nH]c(C(=O)O)c1C [acid A, 4-(Ethoxycarbonyl)-3,5-dimethyl-1H-pyrrole-2-carboxylic Acid]",duration of short-lasting analgesic activity,[1],about 10 min
same,time window of short-lasting analgesic activity,[1],between the 10th and 20th min
same,decrease of analgesic activity until the end of the estimated time,[1]; up to 50th min,56%
"CCOC(=O)c1[nH]c(C)c(C(=O)O)c1C [acid B, 5-(Ethoxycarbonyl)-2,4-dimethyl-1H-pyrrole-3-carboxylic Acid]",duration of short-lasting analgesic activity,[1],about 10 min
same,time window of short-lasting analgesic activity,[1],between the 20th and 30th min
same,PPTs on the 50th min compared with controls,[1]; 50th min,almost equivalent to the controls’
"B-Phe-Glu-Leu-Leu-NH2 [BB19B, bioconjugate of pyrrole acid B and tetrapeptide FELL-NH2]",analgesic activity / PPTs on the 10th min compared with parent pyrrole acid,[1],more significant than the parent beta acid
same,variation of analgesic activity during the whole time of the experiment,[1]; 10th to 50th min,less than 7%
same,course of analgesic activity over time (in words),[1]; 10th to 50th min,sustained analgesic activity
same,analgesic activity on the 50th min compared with parent pyrrole acid,[1]; 50th min,more significant than the parent beta acid
same,analgesic activity (paw pressure thresholds),[1],exhibited analgesic activity
same,"highest analgesic activity reached, as percent of that of the parent acid",[1],64.4%
same,"analgesic activity after opioid receptor blockade (Naloxone pretreatment), in words",[2],significant analgesia that even initially exceeded that of the substances without the pretreatment
same,time points with paradoxically higher analgesia after AM251 pretreatment than without pretreatment,[3],"10th, 20th, and 30th min"
Phe-Glu-Leu-Leu-NH2 [C-terminal amide of the tetrapeptide FELL],analgesic activity over time (in words),[4],gradually increased analgesic activity with time
"Phe-Glu-Leu-Leu-OH [H-FELL-OH, parent tetrapeptide known as an anti-inflammatory agent]",reduction of the total number of white blood cell accumulation in the bronchoalveolar fluid in lungs,[5],51%
same,analgesic activity over time (in words),[4],constantly increasing analgesic activity for the total time of the evaluation
